Reference: patent US20020048549A1, “Radioactive transition metal nitride heterocomplex” (priority 1996, published 2002)
Like-named read-outs stand apart in the source and are kept apart here.

Experiment: Biodistribution of 99mTc(N)(X)(DTC)+ heterocomplexes in rats
Type: in vivo, male Spraque-Dawley rats (SD rats)
Protocol: The biodistribution of a ^99mTc nitride heterocomplex represented by the general formula ^99mTc(N)(X)(Y) was investigated as follows: ^99mTc nitride heterocomplexes were synthesized using DTC as a bidentate ligand Y and each of the diphosphine compounds X described below, and the biodistribution in rats of each heterocomplex was investigated.
Before being injected into rats, the contents of the vial were diluted with phosphate buffer (0.1 mol/dm^3, pH=7.06) containing 10% Tween 80 ([…]). The complexes were stable in the solutions and in human plasma for at least 6 hours.
The biodistribution was measured using male Spraque-Dawley rats (SD rats) weighing 200 to 250 g. After 24 hours fasting, the rats were put under intraperitoneal anesthesia and given an injection in the jugular vein. Then, the organs were excised from the rats at different intervals of time, washed and then weighed. In addition, blood samples were collected and then weighed. The data on the biodistribution are expressed as the mean±significant difference of the percentage of radioactivity level per gram of the organ weight based on the dose of radioactivity, (% dose/g). The measurement was carried out using groups of 5 rats each.

Compound: COCCN1CC[P+](c2ccccc2)(c2ccccc2)[99Tc-2]2(#[N])([NH]N(C)C(SC)=[S+]2)[P+](c2ccccc2)(c2ccccc2)CC1 [^99mTc(N)(PNP2)(DTC)^+]
- Bone % dose/g: 0.209 ± 0.01 % dose/g
- Heart % dose/g: 1.399 ± 0.08 % dose/g
- Liver % dose/g: 3.385 ± 0.81 % dose/g
- Spleen % dose/g: 2.739 ± 0.07 % dose/g
- Blood % dose/g (0 min after injection): 3.220 ± 0.45 % dose/g
- Brain % dose/g (0 min after injection): 0.120 ± 0.00 % dose/g
- Intestine % dose/g (0 min after injection): 0.906 ± 0.03 % dose/g
- Kidney % dose/g (0 min after injection): 5.702 ± 0.732 % dose/g
- Lung % dose/g (0 min after injection): 3.568 ± 0.94 % dose/g
- Muscle % dose/g (0 min after injection): 0.134 ± 0.01 % dose/g
- Stomach % dose/g (0 min after injection): 0.752 ± 0.09 % dose/g
- Blood % dose/g (2 min after injection): 1.025 ± 0.02 % dose/g
- Bone % dose/g (2 min after injection): 0.265 ± 0.04 % dose/g
- Brain % dose/g (2 min after injection): 0.065 ± 0.01 % dose/g
- Heart % dose/g (2 min after injection): 0.728 ± 0.04 % dose/g
- Intestine % dose/g (2 min after injection): 1.694 ± 0.18 % dose/g
- Kidney % dose/g (2 min after injection): 4.941 ± 0.60 % dose/g
- Liver % dose/g (2 min after injection): 7.723 ± 0.20 % dose/g
- Lung % dose/g (2 min after injection): 2.040 ± 0.234 % dose/g
- Muscle % dose/g (2 min after injection): 0.077 ± 0.00 % dose/g
- Spleen % dose/g (2 min after injection): 5.018 ± 0.02 % dose/g
- Stomach % dose/g (2 min after injection): 0.0603 ± 0.03 % dose/g
- Blood % dose/g (10 min after injection): 0.355 ± 0.03 % dose/g
- Bone % dose/g (10 min after injection): 0.268 ± 0.10 % dose/g
- Brain % dose/g (10 min after injection): 0.040 ± 0.00 % dose/g
- Heart % dose/g (10 min after injection): 0.736 ± 0.12 % dose/g
- Intestine % dose/g (10 min after injection): 2.861 ± 0.74 % dose/g
- Kidney % dose/g (10 min after injection): 6.910 ± 0.081 % dose/g
- Liver % dose/g (10 min after injection): 4.686 ± 0.89 % dose/g
- Lung % dose/g (10 min after injection): 1.481 ± 0.10 % dose/g
- Muscle % dose/g (10 min after injection): 0.064 ± 0.02 % dose/g
- Spleen % dose/g (10 min after injection): 5.334 ± 0.10 % dose/g
- Stomach % dose/g (10 min after injection): 0.517 ± 0.16 % dose/g
- Blood % dose/g (30 min after injection): 0.333 ± 0.03 % dose/g
- Bone % dose/g (30 min after injection): 0.301 ± 0.03 % dose/g
- Brain % dose/g (30 min after injection): 0.020 ± 0.00 % dose/g
- Heart % dose/g (30 min after injection): 0.652 ± 0.19 % dose/g
- Intestine % dose/g (30 min after injection): 7.254 ± 0.46 % dose/g
- Kidney % dose/g (30 min after injection): 7.542 ± 1.410 % dose/g
- Liver % dose/g (30 min after injection): 7.341 ± 0.38 % dose/g
- Lung % dose/g (30 min after injection): 1.015 ± 0.16 % dose/g
- Muscle % dose/g (30 min after injection): 0.103 ± 0.02 % dose/g
- Spleen % dose/g (30 min after injection): 5.131 ± 0.59 % dose/g
- Stomach % dose/g (30 min after injection): 1.135 ± 0.298 % dose/g
- Blood % dose/g (1 hr after injection): 0.19 ± 0.01 % dose/g
- Bone % dose/g (1 hr after injection): 0.294 ± 0.02 % dose/g
- Brain % dose/g (1 hr after injection): 0.025 ± 0.00 % dose/g
- Heart % dose/g (1 hr after injection): 0.534 ± 0.02 % dose/g
- Intestine % dose/g (1 hr after injection): 7.644 ± 1.01 % dose/g
- Kidney % dose/g (1 hr after injection): 6.713 ± 0.83 % dose/g
- Liver % dose/g (1 hr after injection): 7.436 ± 1.44 % dose/g
- Lung % dose/g (1 hr after injection): 1.011 ± 0.01 % dose/g
- Muscle % dose/g (1 hr after injection): 0.075 ± 0.01 % dose/g
- Spleen % dose/g (1 hr after injection): 5.073 ± 0.01 % dose/g
- Stomach % dose/g (1 hr after injection): 0.932 ± 0.12 % dose/g
- Blood % dose/g (2 hr after injection): 0.129 ± 0.02 % dose/g
- Bone % dose/g (2 hr after injection): 0.357 ± 0.08 % dose/g
- Brain % dose/g (2 hr after injection): 0.025 ± 0.00 % dose/g
- Heart % dose/g (2 hr after injection): 0.511 ± 0.05 % dose/g
- Intestine % dose/g (2 hr after injection): 6.442 ± 0.59 % dose/g
- Kidney % dose/g (2 hr after injection): 6.799 ± 1.348 % dose/g
- Liver % dose/g (2 hr after injection): 4.061 ± 0.64 % dose/g
- Lung % dose/g (2 hr after injection): 0.962 ± 0.02 % dose/g
- Muscle % dose/g (2 hr after injection): 0.102 ± 0.02 % dose/g
- Spleen % dose/g (2 hr after injection): 5.507 ± 0.84 % dose/g
- Stomach % dose/g (2 hr after injection): 1.701 ± 0.34 % dose/g
- Blood % dose/g (4 hr after injection): 0.087 ± 0.00 % dose/g
- Bone % dose/g (4 hr after injection): 0.329 ± 0.01 % dose/g
- Brain % dose/g (4 hr after injection): 0.018 ± 0.00 % dose/g
- Heart % dose/g (4 hr after injection): 0.506 ± 0.04 % dose/g
- Intestine % dose/g (4 hr after injection): 4.054 ± 0.39 % dose/g
- Kidney % dose/g (4 hr after injection): 7.471 ± 0.03 % dose/g
- Liver % dose/g (4 hr after injection): 1.784 ± 0.25 % dose/g
- Lung % dose/g (4 hr after injection): 0.670 ± 0.09 % dose/g
- Muscle % dose/g (4 hr after injection): 0.08 ± 0.00 % dose/g
- Spleen % dose/g (4 hr after injection): 5.055 ± 0.02 % dose/g
- Stomach % dose/g (4 hr after injection): 1.220 ± 0.150 % dose/g
